Publication PMC5108564, “Use of ferrous iron by metallo-β-lactamases” (Journal of Inorganic Biochemistry, 2016)
“And” between values parts separate entries of the source, which are not always exact repeats. Identical values can stand only once.

Columns and labels:
[1] = biological target: T1, di-Fe(II) BcII (Bacillus cereus, UniProt P04190); test: Inhibition assay with nitrocefin as reporter substrate; type: biochemical
T1 construct: made in house; host or cells: E. coli BL21(DE3)pLysS
Protocol: (§1) Enzyme concentrations were the same as those employed in equilibrium kinetic studies. […] Residual enzyme activity was determined for a range of inhibitor concentrations. Non-linear regression fitting of IC50 curves was carried out using a three-parameter dose-response curve in GraphPad Prism. Errors are expressed as: σlogIC50/logIC50×IC50 .
(§2) MBL inhibition is a current target for medicinal chemistry, [63]. Given the observed differences in metal binding geometries between the di-Fe(II) and di-Zn(II) form of BcII and in the kinetic properties of di-Fe(II) BcII and VIM-2 compared to their di-Zn(II) enzymes, we then investigated whether the two metal-substituted BcII enzymes might respond differently to known MBL inhibitors (Table 3 and Fig. S12). We were particularly interested to see if the two enzyme forms responded differently to thiol-based MBL inhibitors, since the sulfur often bridges the two metal centres as an analogue of the bridging water during inhibition, [64].

[2] = biological target: T2, di-Zn(II) BcII (Bacillus cereus, UniProt P04190); test: as above; type: biochemical
T2 construct: made in house; host or cells: E. coli BL21(DE3)pLysS
T2 sequence (P04190 31-257): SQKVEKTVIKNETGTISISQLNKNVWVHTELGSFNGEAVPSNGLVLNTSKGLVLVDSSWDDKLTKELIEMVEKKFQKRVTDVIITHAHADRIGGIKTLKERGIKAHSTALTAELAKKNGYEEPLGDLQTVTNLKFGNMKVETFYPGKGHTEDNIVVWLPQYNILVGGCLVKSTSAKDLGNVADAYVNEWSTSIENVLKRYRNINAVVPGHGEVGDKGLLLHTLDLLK
Protocol: as §1, §2

[3] = biological target: T3, di-Fe(II) VIM-2 (Pseudomonas aeruginosa, UniProt Q9K2N0); conditions: meropenem as substrate, VIM-2 Fe(II), [E] 30 nM, low O2
Protocol: (§5) Steady-state kinetic studies were carried out using a Pherastar FS microplate reader and UV-Star 96 well clear microplates (Greiner Bio-One). Samples of 1 mM apo-enzyme were pre-incubated with two equivalents of TCEP·HCl for 5 min prior to addition of 3.5 equivalents of the desired metal before dilution to concentrations required for kinetic assays. For Fe(II)-substituted enzymes, plates were prepared at ≤ 2 ppm O2 using deoxygenated buffer and sealed prior to absorbance readings. […] Substrate concentrations ranged between 400 μM and 0.4 μM. The Michaelis-Menten equation was fitted to data by non-linear regression using GraphPad Prism software to calculate the Michaelis-Menten constant and the limiting rate [43].

[4] = biological target: T4, di-Zn(II) VIM-2 (Pseudomonas aeruginosa, UniProt Q9K2N0); conditions: meropenem as substrate, VIM-2 Zn(II), [E] 5 nM
Protocol: as §5

[5] = biological target: T1, di-Fe(II) BcII; test: Stopped-flow UV/Vis absorption kinetics of nitrocefin hydrolysis; type: biochemical; design: k1 / k-1 / k2 / k3 / k4 / k5: unit not given here; conditions: for Substrate Decay / Product accumulation / Intermediate Decay / Intermediate accumulation: Fe(II), 1:1, 5 °C; for k1: 50 µM enzyme, 50 µM nitrocefin
Protocol: (§3) All metal solutions and metal-substituted enzymes for stopped-flow kinetics were prepared at ≤ 40 ppm O2 using deoxygenated buffers. Buffers used were: 50 mM HEPES pH 7.5, 200 mM NaCl; 50 mM MES pH 6.5, 200 mM NaCl; 50 mM MES pH 5.5, 200 mM NaCl. All buffers were treated with Chelex 100 to remove residual metal ions. Aliquots of apo-enzyme were diluted to 100 μM by addition of reaction buffer (1 mL final volume). The enzyme was incubated with two equivalents of tris(2-carboxyethyl)phosphine hydrochloride salt (TCEP·HCl), by addition of 2 μL of a 100 mM stock, for 5 min. Metal-substituted enzymes were then produced by the addition of 3.5 equivalents of metal salt to the apo-enzyme (3.5 μL of a 100 mM stock in buffer). […] Spectra were recorded over 100 s using a photodiode-array detector. Subsequent analysis of kinetic traces was carried out using Origin 8.5 [41]. Curves corresponding to substrate depletion (390 nm) and product accumulation (485 nm) were fitted by a single exponential function, whilst 665 nm features were fitted by a double exponential function.
(§4) Note that difference spectra were employed to identify the λmax of the feature and indicate that the feature corresponds to an independent species. […] Thus the observation of a visible reaction intermediate absorbing at 665 nm depends on the particular metal-enzyme combination employed.
The observation of an intermediate at 665 nm with di-Fe(II) BcII strongly correlates with increasing pH, with a larger change in absorbance amplitude at pH 7.5 (ΔAbsmax at pH 7.5 is 0.25 compared to ΔAbsmax at pH 6.5 and 5.5 of 0.15 and 0.05, respectively, Fig. 2 & Figs. S4–5). […] Data fitting using the Kintek Explorer package was unable to distinguish between linear and branched pathways (Fig. S11), but in both fittings the decay of the intermediate species was identified as the rate-limiting step (k3 and k4 in Tables S4 and S5, respectively). Although intermediate decay is apparently rate limiting, a negligible amount of intermediate is seen at pH 5.5. This may be explained either by a branched pathway, in which the branch with no intermediate is favoured by lower pH, or by a linear pathway in which the rate of decay of the intermediate rises with a decrease in pH thus preventing an observable accumulation of intermediate.

[6] = biological target: T2, di-Zn(II) BcII; test: as above; type: biochemical; conditions: for Substrate Decay: 1:1 enzyme:nitrocefin, 5 °C; for Product accumulation: 1:1, 5 °C
Protocol: as §3, §4

[7] = biological target: T3, di-Fe(II) VIM-2; test: as above; type: biochemical; design: His-tag (3C protease site) (N, cleaved yes); made in house; host or cells: E. coli BL21(DE3)pLysS; conditions: 1:1, 5 °C
Protocol: as §3, §4

[8] = biological target: T4, di-Zn(II) VIM-2; test: as above; type: biochemical; design: His-tag (3C protease site) (N, cleaved yes); made in house; host or cells: E. coli BL21(DE3)pLysS; conditions: 1:1, 5 °C
Protocol: as §3, §4

[9] = tested on: C[C@@H](O)[C@H]1C(=O)N2C(C(=O)O)=C(S[C@@H]3CN[C@H](C(=O)N(C)C)C3)[C@H](C)[C@H]12; test: purified protein, by the assay type; conditions: other: meropenem as substrate, [E] 2 nM
Protocol: as §5

[10] = tested on: O=C(Cc1cccs1)N[C@@H]1C(=O)N2C(C(=O)O)=C(/C=C/c3ccc([N+](=O)[O-])cc3[N+](=O)[O-])CS[C@H]12; test: purified protein, by the assay type; conditions: other: nitrocefin as substrate
[11] = Kintek Explorer fit, branched mechanism, pH 7.5, 5°C
[12] = Kintek Explorer fit, linear mechanism, pH 7.5, 5°C

T1 sequence (P04190 31-257): as above

Compound: O=C(O)CN(CCN(CC(=O)O)CC(=O)O)CC(=O)O [EDTA]
- IC50 [1]: 4700 ± 100 µM
- IC50 [2]: 7500 ± 300 µM

Compound: O=C(O)/C(S)=C/c1c(Cl)ccc(Cl)c1Cl [ML302F]
- IC50 [1]: 0.38 ± 0.08 µM
- fold difference in IC50 ([1]; di-Fe(II) BcII versus di-Zn(II) BcII): ~10 fold
- IC50 [2]: 0.046 ± 0.001 µM

Compound: O=C(O)C(S)c1ccccc1 (stereo not shown) [Thiomandelic acid]
- IC50 [1]: 2.8 ± 0.8 µM
- IC50 [2]: 1.3 ± 0.3 µM

Compound: C[C@@H](O)[C@H]1C(=O)N2C(C(=O)O)=C(S[C@@H]3CN[C@H](C(=O)N(C)C)C3)[C@H](C)[C@H]12 [meropenem]
- Km [3]: 16 ± 2 µM
- kcat [3]: 0.5 ± 0.0 s⁻¹
- Km [4]: 10 ± 2 µM
- kcat [4]: 2.4 ± 0.1 s⁻¹

Compound: O=C(Cc1cccs1)N[C@@H]1C(=O)N2C(C(=O)O)=C(/C=C/c3ccc([N+](=O)[O-])cc3[N+](=O)[O-])CS[C@H]12 [nitrocefin]
- Substrate Decay ([5]; pH 5.5, 390 nm): 3.88 s⁻¹ and 3.88 ± 0.01 s⁻¹
- Product accumulation ([5]; pH 5.5, 485 nm): 5.78 ± 0.01 s⁻¹
- Substrate Decay ([5]; pH 6.5, 390 nm): 5.25 ± 0.01 s⁻¹
- Product accumulation ([5]; pH 6.5, 485 nm): 4.27 ± 0.01 s⁻¹
- Intermediate Decay ([5]; pH 6.5, 665 nm): 1.2 ± 0.1 s⁻¹
- Intermediate accumulation ([5]; pH 6.5, 665 nm): 18.31 ± 0.01 s⁻¹
- Substrate Decay ([5]; pH 7.5, 390 nm): 7.25 s⁻¹ and 7.25 ± 0.01 s⁻¹
- Product accumulation ([5]; pH 7.5, 485 nm): 7.20 ± 0.01 s⁻¹
- Intermediate Decay ([5]; pH 7.5, 665 nm): 1.4 ± 0.1 s⁻¹
- Intermediate accumulation ([5]; pH 7.5, 665 nm): 20.32 ± 0.01 s⁻¹
- k1 [5, 11]: 239000
- k2 [5, 11]: 46
- k3 [5, 11]: 73.4
- k-1 [5, 11]: 0.0000001
- k5 ([5]; Kintek Explorer fit, branched mechanism, pH 7.5, 5°C, fixed): 100000000
- k4 ([5]; Kintek Explorer fit, branched mechanism, pH 7.5, 5°C, intermediate decay, rate-limiting): 4.18
- k1 [5, 12]: 225000
- k2 [5, 12]: 82.7
- k-1 [5, 12]: 0.000000403
- k4 ([5]; Kintek Explorer fit, linear mechanism, pH 7.5, 5°C, fixed): 100000000
- k3 ([5]; Kintek Explorer fit, linear mechanism, pH 7.5, 5°C, intermediate decay, rate-limiting): 7.2
- Substrate Decay ([6]; pH 5.5, 390 nm): 4.16 s⁻¹ and 4.16 ± 0.01 s⁻¹
- Product accumulation ([6]; pH 5.5, 485 nm): 4.13 ± 0.01 s⁻¹
- Substrate Decay ([6]; pH 6.5, 390 nm): 3.24 ± 0.01 s⁻¹
- Product accumulation ([6]; pH 6.5, 485 nm): 3.29 ± 0.01 s⁻¹
- Substrate Decay ([6]; pH 7.5, 390 nm): 2.55 s⁻¹ and 2.55 ± 0.01 s⁻¹
- Product accumulation ([6]; pH 7.5, 485 nm): 2.75 ± 0.01 s⁻¹
- Substrate Decay ([7]; pH 5.5, 390 nm): 35 s⁻¹ and 35 ± 1 s⁻¹
- Product accumulation ([7]; pH 5.5, 485 nm): 23.4 ± 0.5 s⁻¹
- Substrate Decay ([7]; pH 6.5, 390 nm): 0.24 s⁻¹ and 0.24 ± 0.01 s⁻¹
- Product accumulation ([7]; pH 6.5, 485 nm): 0.44 ± 0.01 s⁻¹
- Substrate Decay ([7]; pH 7.5, 390 nm): 0.15 s⁻¹ and 0.15 ± 0.01 s⁻¹
- Product accumulation ([7]; pH 7.5, 485 nm): 0.35 ± 0.01 s⁻¹
- Substrate Decay ([8]; pH 5.5, 390 nm): 190 s⁻¹ and 190 ± 4 s⁻¹
- Product accumulation ([8]; pH 5.5, 485 nm): 93 ± 2 s⁻¹
- Intermediate Decay ([8]; pH 5.5, 665 nm): 120 ± 10 s⁻¹
- Intermediate accumulation ([8]; pH 5.5, 665 nm): 220 ± 20 s⁻¹
- Substrate Decay ([8]; pH 6.5, 390 nm): 290 ± 10 s⁻¹
- Product accumulation ([8]; pH 6.5, 485 nm): 130 ± 4 s⁻¹
- Intermediate Decay ([8]; pH 6.5, 665 nm): 160 ± 30 s⁻¹
- Intermediate accumulation ([8]; pH 6.5, 665 nm): 320 ± 80 s⁻¹
- Substrate Decay ([8]; pH 7.5, 390 nm): 320 s⁻¹ and 320 ± 30 s⁻¹
- Product accumulation ([8]; pH 7.5, 485 nm): 140 ± 5 s⁻¹
- Intermediate Decay ([8]; pH 7.5, 665 nm): 180 ± 50 s⁻¹

Compound: di-Fe(II) BcII (Bacillus cereus)
- Km ([9]; BcII Fe(II), low O2): 230 ± 30 µM
- kcat ([9]; BcII Fe(II), low O2): 38 ± 2 s⁻¹
- kcat/Km ([9]; BcII Fe(II), low O2): 170000 M⁻¹ s⁻¹
- Km ([10]; BcII Fe(II), [E] 2 nM, low O2): 11 ± 2 µM
- kcat ([10]; BcII Fe(II), [E] 2 nM, low O2): 12.5 s⁻¹
- kcat/Km ([10]; BcII Fe(II), [E] 2 nM, low O2): 1.2e+06 M⁻¹ s⁻¹

Compound: di-Fe(II) VIM-2 (Pseudomonas aeruginosa)
- Km ([10]; VIM-2 Fe(II), [E] 1 nM, low O2): 32 ± 5 µM
- kcat ([10]; VIM-2 Fe(II), [E] 1 nM, low O2): 44 s⁻¹
- kcat/Km ([10]; VIM-2 Fe(II), [E] 1 nM, low O2): 1.4e+06 M⁻¹ s⁻¹

Compound: di-Zn(II) BcII (Bacillus cereus)
- Km ([9]; BcII Zn(II)): 220 ± 20 µM
- kcat ([9]; BcII Zn(II)): 89 ± 3 s⁻¹
- kcat/Km ([9]; BcII Zn(II)): 400000 M⁻¹ s⁻¹
- Km ([10]; BcII Zn(II), [E] 2 nM): 12 ± 2 µM
- kcat ([10]; BcII Zn(II), [E] 2 nM): 10.1 s⁻¹
- kcat/Km ([10]; BcII Zn(II), [E] 2 nM): 820000 M⁻¹ s⁻¹

Compound: di-Zn(II) VIM-2 (Pseudomonas aeruginosa)
- Km ([10]; VIM-2 Zn(II), [E] 0.1 nM): 9 ± 1 µM
- kcat ([10]; VIM-2 Zn(II), [E] 0.1 nM): 143 s⁻¹
- kcat/Km ([10]; VIM-2 Zn(II), [E] 0.1 nM): 1.6e+07 M⁻¹ s⁻¹
